Measurements from patent publication US4368267A, “Epoxidation of lower α-olefins” (priority 1980, dated 1983).
Counter-ions that a name gives are not always drawn.

Legend:
[1] = system: Methylobacterium organophilum (CRL 26, NRRL B-11,222); experiment: Epoxidation/hydroxylation by washed cell suspensions; type: cell-based; settings: Propylene + 5 mM stimulator compound
Experimental: (§1) The pH of the nutrient medium was adjusted to 7.0 by the addition of acid or base and 50 ml aliquots of the nutrient medium was charged into a plurality of 300 ml shake flasks. The shake flasks were inoculated with an inoculating loop of cells from an agar plate containing homogeneous colonies of the microorganisms on the plate (the purity of the isolates were confirmed by microscopic examination). The isolates had been maintained on agar plates under an atmosphere of methane and air having a 1:1 v/v gas ratio which had been transferred every two weeks. The gaseous phase of the inoculated flasks was then replaced with a gas mixture comprised of methane and air having a ratio of 1:1 on a v/v basis. The inoculated flasks were sealed air tight and were incubated on a rotary shaker of orbital radius 2.5 cm at 250 rpm and at 30° C. for two days until the turbidity in the medium had developed.
(§2) The cells were harvested by centrifugation at 10,000 ×g at 4° C. for 30 minutes. The cell pellet was washed twice with a 0.15 M phosphate buffer at a pH of 7.0 (containing 0.002 M MgCl2). The washed cells were then suspended in a 0.15 M phosphate buffer at pH 7.0.
(§3) A 0.5 ml aliquot of each washed cell suspension (2 mg cells) was put into 10 ml vials at 4° C. which were sealed with a rubber cap. The gaseous phase of the vials was removed with vacuum and then was replaced with a gas mixture of alkene and oxygen at a 1:1 v/v ratio. It was then incubated at 30° C. on a rotary shaker at 300 rpm. Samples of product (3 μl) were withdrawn periodically with a microsyringe and the products were analyzed by gas chromatography (ionization flame detector column).
(§4) Several experiments were carried out using a plurality of compounds capable of generating the necessary reducing power (NADH2 or NADPH2) required for the epoxidation of alkenes or dienes. These experiments were carried out using cell suspensions of methane grown methylotrophs using the procedure as described in Example 1 except that a stimulator compound was added to the reaction medium.

[2] = system: Methylococcus capsulatus strain MC; experiment: Stimulation of propylene epoxidation in cell suspensions; type: cell-based; settings: Propylene + 5 mM stimulator compound
Experimental: as §1, §2, §3, §4

[3] = system: P(40), P(80), S(80) cell fractions of Methylosinus sp. (CRL-15, NRRL B-11,202); experiment: Oxidation of n-alkanes and n-alkenes by cell fractions; type: biochemical; settings: for Methane-Oxidizing Activity in presence of metal / Propylene-Oxidizing Activity in presence of metal / % Inhibition, Propylene-Epoxidizing Activity / % Inhibition, Methane-Hydroxylating Activity: P(40) fraction; for Methane-Oxidizing Activity in presence of metal / Propylene-Oxidizing Activity in presence of metal: metal 10^-3 M; for Methane-Oxidizing Activity in presence of metal: control 4.0; for Propylene-Oxidizing Activity in presence of metal: control […]; for % Inhibition, Propylene-Epoxidizing Activity / % Inhibition, Methane-Hydroxylating Activity: inhibitor 10^-3 M; for % Inhibition, Propylene-Epoxidizing Activity: uninhibited rate 4.1; for % Inhibition, Methane-Hydroxylating Activity: uninhibited rate 4.5; for Rate of Product Formation (substrate to 1,2-epoxide or alcohol): P(40) particulate fraction, 30° C.
Experimental: Cells were washed twice with 25 mM potassium phosphate buffer, pH 7.0 containing 5 mM MgCl2. Cells were suspended in the same buffer. The cell suspensions at 4° C. were disintegrated by a single passage through a French Pressure cell (15,000 lb./in.^2) and centrifuged at 5000×g. for 15 min. to remove unbroken bacteria. The supernatant solution (crude extract) was then centrifuged at 40,000×g. for 30 min., yielding particulate P(40) and soluble S(40) fractions. The S(40) fraction was subsequently centrifuged at 80,000×g. for 60 min., yielding particulate P(80) and soluble S(80) fractions. The particulate fractions [P(40) and P(80)] were suspended in 25 mM potassium phosphate buffer, pH 7.0, containing 5 mM MgCl2 and homogenized at 4° C.
[…] The reaction mixtures contained in 1.0 ml: 150 mM potassium phosphate buffer, pH 7.0 containing 5 mM MgCl2, 0.6 ml; […] NADH, and cellular fraction.
Reaction mixtures were contained in 10 ml vials at 4° C. Vials were sealed with rubber caps. The gaseous phase in the vials was removed using vacuum and then was replaced with a gas mixture of methane or propylene and oxygen at a 1:1, v/v ratio. Oxidation of other gaseous n-alkanes and n-alkenes was examined as described above. For liquid substrates, 10 μl of substrate was used directly.
The products of epoxidation of n-alkenes and hydroxylation of n-alkanes were assayed by flame ionization gas chromatography using a stainless steel column (12'×1/8") packed with 10% Carbowax 20 M on 80/100 Chromosorb W and Porapak Q column. The column temperature was maintained isothermally at 120° C. The carrier gas flow rate was 30 ml/min. of helium. The various products were identified by retention time comparisons and co-chromatography with authentic standards.
Specific activities were expressed as μ moles of products formed per hour per mg. protein. Concentrations of protein in various fractions were determined by the method of Lowry et al., J. Biol. Chem. 193: 265-275 (1951).

[4] = system: Methylococcus capsulatus (CRL M1, NRRL B-11,219); experiment: Oxidation/epoxidation by washed cell suspensions; type: cell-based; settings: methane-grown washed cells
[5] = system: Methylobacter capsulatus Y (NRRL B-11,201); experiment: Methane hydroxylation and propylene epoxidation by washed cell suspensions; type: cell-based; settings: Propylene + 5 mM stimulator compound
Experimental: as §1, §2
as §3, with “The gaseous phase of the vials was removed with vacuum and then was replaced with a gas mixture of alkene and oxygen at a 1:1 v/v ratio.” left out
Several experiments were carried out using a plurality of compounds capable of generating the necessary reducing power (NADH2 or NADPH2) required for the epoxidation of alkenes or dienes. […]

[6] = system: Methylosinus trichosporium OB3b (NRRL B-11,196); experiment: Methane hydroxylation and alkene epoxidation by washed cell suspensions; type: cell-based; settings: methane-grown washed cells, 30° C.
Experimental: as §1, with “The shake flasks were inoculated with an inoculating loop of cells from an agar plate containing homogeneous colonies of the microorganisms on the plate (the purity of the isolates were confirmed by microscopic examination).” left out
as §2
as §3, with “A 0.5 ml aliquot of each washed cell suspension (2 mg cells) was put into 10 ml vials at 4° C. which were sealed with a rubber cap.” left out

[7] = system: Methylosinus sporium 5 (NRRL B-11,197); experiment: as above; type: cell-based; settings: methane-grown washed cells, 30° C.
Experimental: as §1, with “The shake flasks were inoculated with an inoculating loop of cells from an agar plate containing homogeneous colonies of the microorganisms on the plate (the purity of the isolates were confirmed by microscopic examination).” left out
as §2
as §3, with “The gaseous phase of the vials was removed with vacuum and then was replaced with a gas mixture of alkene and oxygen at a 1:1 v/v ratio.” left out

[8] = system: Methylocystis parvus OBBP (NRRL B-11,198); experiment: as above; type: cell-based; settings: methane-grown washed cells; 0.2 g/100 ml dry weight of cells
Experimental: (§5) The pH of the nutrient medium was adjusted to 7.0 by the addition of acid or base and 50 ml aliquots of the nutrient medium was charged into a plurality of 300 ml shake flasks. […] The isolates had been maintained on agar plates under an atmosphere of methane and air having a 1:1 v/v gas ratio which had been transferred every two weeks. […] The inoculated flasks were sealed air tight and were incubated on a rotary shaker of orbital radius 2.5 cm at 250 rpm and at 30° C. for two days until the turbidity in the medium had developed.
as §2, §3

[9] = system: Methylomonas methanica S1 (NRRL B-11,199); experiment: as above; type: cell-based; settings: methane-grown washed cells; 0.2 g/100 ml dry weight of cells
Experimental: as §5, §2, §3

[10] = system: Methylomonas albus BG8 (NRRL B-11,200); experiment: as above; type: cell-based; settings: methane-grown washed cells; 0.2 g/100 ml dry weight of cells
Experimental: The pH of the nutrient medium was adjusted to 7.0 by the addition of acid or base and 50 ml aliquots of the nutrient medium was charged into a plurality of 300 ml shake flasks. […] The isolates had been maintained on agar plates under an atmosphere of methane and air having a 1:1 v/v gas ratio which had been transferred every two weeks. The gaseous phase of the inoculated flasks was then replaced with a gas mixture comprised of methane and air having a ratio of 1:1 on a v/v basis. The inoculated flasks were sealed air tight and were incubated on a rotary shaker of orbital radius 2.5 cm at 250 rpm and at 30° C. for two days until the turbidity in the medium had developed.
as §2, §3

[11] = system: whole cell suspensions of methylotrophs (C1 -utilizing microbes); settings: 2-butanol added; biocatalyst from C1 -C4 gaseous alkane-grown microbes

COC(C)=O [Methyl Acetate]
Rate of Product Formation (Propylene Oxide) [1]: 5.0 nmoles/hr/mg protein
Rate of Product Formation (Propylene Oxide) [2]: 21 nmoles/hr/mg protein

O=S(=O)([O-])[O-].[Cu+2] [Cupric Sulfate]
Methane-Oxidizing Activity in presence of metal [3]: 7.1 μmoles/hr/mg protein
Propylene-Oxidizing Activity in presence of metal [3]: 9.0 μmoles/hr/mg protein

CC(C)(C)C [2,2-dimethylpropane]
Reaction Rate, 2,2-dimethylpropane to 2,2-dimethylpropanol [4]: 0.085 μmoles/hr/mg biomass

CCC=O [Propionaldehyde]
Rate of Product Formation (Propylene Oxide) [5]: 54 nmoles/hr/mg protein
Rate of Product Formation (Propylene Oxide) [2]: 40 nmoles/hr/mg protein

NNC(N)=S [Thiosemicarbazide, reference compound]
% Inhibition, Propylene-Epoxidizing Activity [3]: 97%
% Inhibition, Methane-Hydroxylating Activity [3]: 100%

C=CCCCC [Hexene-1]
Conversion rate, hexene-1 to 1,2-epoxyhexane [6]: 0 μmole/hr/mg protein
Conversion rate, hexene-1 to 1,2-epoxyhexane ([6]; listed as hexene-1): did not produce any detectable epoxide
Conversion rate, hexene-1 to 1,2-epoxyhexane [7]: 0 μmole/hr/mg protein
Conversion rate, hexene-1 to 1,2-epoxyhexane ([7]; listed as hexene-1): did not produce any detectable epoxide

C=CCCC [Pentane-1, pentene-1]
Conversion rate, Pentane-1 to 1,2-epoxypentane [6]: 0 μmole/hr/mg protein
Conversion rate, pentene-1 to 1,2-epoxypentane [6]: did not produce any detectable epoxide
Conversion rate, Pentane-1 to 1,2-epoxypentane [7]: 0 μmole/hr/mg protein
Conversion rate, pentene-1 to 1,2-epoxypentane [7]: did not produce any detectable epoxide
Rate of Product Formation (substrate to 1,2-epoxide or alcohol) [3]: 0 μmoles/hr/mg of protein

C=C [Ethylene]
Conversion rate, ethylene to ethylene oxide [6]: 1.9 μmole/hr/mg protein
Conversion rate, ethylene to ethylene oxide [8]: 0.9 μmole/hr/mg protein
Conversion rate, ethylene to ethylene oxide [9]: 0.95 μmole/hr/mg protein
Conversion rate, ethylene to ethylene oxide [7]: 1.1 μmole/hr/mg protein
Conversion rate, ethylene to ethylene oxide [10]: 1.2 μmole/hr/mg protein
Rate of Product Formation (substrate to 1,2-epoxide or alcohol) [3]: 1.27 μmoles/hr/mg of protein

COC [Dimethylether]
Rate of Product Formation (Propylene Oxide) [1]: 50 nmoles/hr/mg protein

[Cl][Fe]([Cl])[Cl] [Ferric Chloride]
Methane-Oxidizing Activity in presence of metal [3]: 4.8 μmoles/hr/mg protein
Propylene-Oxidizing Activity in presence of metal [3]: 5.8 μmoles/hr/mg protein

CCO [Ethanol]
Rate of Product Formation (Propylene Oxide) [5]: 370 nmoles/hr/mg protein
Rate of Product Formation (Propylene Oxide) [1]: 124 nmoles/hr/mg protein
Rate of Product Formation (Propylene Oxide) [2]: 462 nmoles/hr/mg protein

c1cnc2c(c1)ccc1cccnc12 [1,10-phenanthroline, reference compound]
% Inhibition, Propylene-Epoxidizing Activity [3]: 93%
% Inhibition, Methane-Hydroxylating Activity [3]: 90%

C=CC=C [Butadiene]
Conversion rate, butadiene to 1,2-epoxybutene [6]: 2.6 μmole/hr/mg protein
Conversion rate, butadiene to 1,2-epoxybutene [7]: 1.5 μmole/hr/mg protein
Rate of Product Formation (substrate to 1,2-epoxide or alcohol) [3]: 0.63 μmoles/hr/mg of protein

c1ccc(-c2ccccn2)nc1 [α,α-Bipyridyl, reference compound]
% Inhibition, Propylene-Epoxidizing Activity [3]: 98%
% Inhibition, Methane-Hydroxylating Activity [3]: 99%

NC(N)=S [Thiourea, reference compound]
% Inhibition, Propylene-Epoxidizing Activity [3]: 98%
% Inhibition, Methane-Hydroxylating Activity [3]: 98%

[Cl][Cu] [Cuprous Chloride]
Methane-Oxidizing Activity in presence of metal [3]: 7.2 μmoles/hr/mg protein
Propylene-Oxidizing Activity in presence of metal [3]: 9.2 μmoles/hr/mg protein

CC(C)O [Isopropanol]
Rate of Product Formation (Propylene Oxide) [5]: 13 nmoles/hr/mg protein
Rate of Product Formation (Propylene Oxide) [1]: 20 nmoles/hr/mg protein
Rate of Product Formation (Propylene Oxide) [2]: 37 nmoles/hr/mg protein

C=CCC [Butene-1]
Conversion rate, butene-1 to 1,2-epoxybutane [6]: 0.45 μmole/hr/mg protein
Conversion rate, butene-1 to 1,2-epoxybutane [7]: 0.8 μmole/hr/mg protein
Rate of Product Formation (substrate to 1,2-epoxide or alcohol) [3]: 2.18 μmoles/hr/mg of protein

CC(C)C [Isobutane]
Reaction Rate, isobutane to isobutyraldehyde [4]: 0.072 μmoles/hr/mg biomass
Reaction Rate, isobutane to tertiary butanol [4]: 0.051 μmoles/hr/mg biomass

CCC(C)O (centres unmarked) [2-Butanol]
Rate of Product Formation (Propylene Oxide) [5]: 26 nmoles/hr/mg protein
Effect on epoxidation of gaseous n-alkenes [11]: somehow inhibited
Rate of Product Formation (Propylene Oxide) [2]: 21 nmoles/hr/mg protein

C=CC(=C)C [Isoprene]
Reaction Rate, isoprene to 1,2-epoxyisoprene [4]: 0.064 μmoles/hr/mg biomass

Oc1cccc2cccnc12 [8-Hydroxyquinoline, reference compound]
% Inhibition, Propylene-Epoxidizing Activity [3]: 75%
% Inhibition, Methane-Hydroxylating Activity [3]: 80%

CC=O [Acetaldehyde]
Rate of Product Formation (Propylene Oxide) [1]: 13 nmoles/hr/mg protein
Rate of Product Formation (Propylene Oxide) [2]: 154 nmoles/hr/mg protein

Ferrous Sulfate
Methane-Oxidizing Activity in presence of metal [3]: 4.8 μmoles/hr/mg protein
Propylene-Oxidizing Activity in presence of metal [3]: 5.9 μmoles/hr/mg protein

CCCO [Propanol]
Rate of Product Formation (Propylene Oxide) [1]: 66 nmoles/hr/mg protein
Rate of Product Formation (Propylene Oxide) [2]: 243 nmoles/hr/mg protein

COC=O [Methyl Formate]
Rate of Product Formation (Propylene Oxide) [5]: 99 nmoles/hr/mg protein
Rate of Product Formation (Propylene Oxide) [1]: 61 nmoles/hr/mg protein
Rate of Product Formation (Propylene Oxide) [2]: 390 nmoles/hr/mg protein

CC [Ethane]
Rate of Product Formation (substrate to 1,2-epoxide or alcohol) [3]: 3.2 μmoles/hr/mg of protein
